Results on four compounds are retold here after patent US20260207628A1, “25-HYDROXY-CHOLEST-5-EN-3-SULFATE CHOLINE, FORMULATIONS THEREOF AND METHODS FOR PREPARING, AND USES OF SAME” (Durect Corporation, priority 2022, published 2026).

The procedure of data set [1]:
Four vials were prepared and stored at 2-8° C. or […] according to Table B2. The samples were scheduled initially to pull for testing at 3 weeks and 6 weeks time points.
For appearance, each unopened vial was visually examined for color, clumping, and flowability.
Samples were prepared by pipetting 20 mL of 100% methanol into each vial and mixing well, with sonication and vortexing to fully dissolve the samples for HPLC analysis.
HPLC analysis was performed.

Data set [2] is described as follows: Biorelevant drug release, USP Apparatus 2, 0-30 min FaSSGF then FaSSGF + double strength FaSSIF. The format is physicochemical. The note with it: at 90 minutes, biorelevant media. The protocol:
Biorelevant media as used herein is a combination of 2 different media used at different times. The first is in FaSSGF which stands for Fasted-state simulated gastric fluid and is used for 30 minutes of drug release. Afterwards, drug release is measured with addition of double strength FaSSIF which is Fasted-state simulated intestinal fluid. A skilled artisan would understand that the double strength FaSSIF is added at 30 minutes.
As used herein, the biorelevant drug release was conducted using a USP Apparatus 2 with (1) 0-30 minutes in 450 mL FaSSGF; and (2) 30-90 minutes FaSSGF+double strength FaSSIF in a total of 900 mL of media with pH adjusted to 6.5; with a paddle speed of 75 rpm (0-75 minutes) and 250 rpm (75-90 minutes) and a vessel temperature of 37° C.

For data set [3] the following is noted: by angle of repose. The protocol:
Angle of repose is measured as follows. Powder is poured from a funnel onto a flat surface until a cone of powder is created. The angle of repose is calculated according to the following equation:
[formula] • Where: • h: height of the cone (mm) • r: radius of the cone (mm)
The height of the cone was estimated with calipers.

The procedure of data set [4]:
The aqueous solvents were water, 5% dextrose, 0.9% sodium chloride, Fasted State Simulated Intestinal Fluid (FaSSIF), Fed State Simulated Intestinal Fluid (FeSSIF) and Fasted State Simulated Gastric Fluid (FaSSGF). The organic solvents were methanol, ethanol, isopropanol and acetonitrile.
These fluids were prepared per the instruction listed by Biorelevant (Biorelevant.com). Each buffer concentrate was diluted with water and mixed well. FaSSIF, FeSSIF, FaSSGF powder was added to each buffer and mixed to completely dissolve the powder. Buffers were stored at room temperature and used within 48 hours of preparation.
Aliquots of each solvent were added to each sample and vortexed for about one minute until excess solid remained. Samples were placed on shaker at room temperature with 210 motion per minute shaking.
After one day, samples were pulled and checked if excess solid was present. About 1.5 mL aliquot of each sample was centrifuged at 12000 rpm for 12 to 15 minutes. […] Aliquots of the top clear solution of each centrifuged sample in MeOH, EtOH, IPA and ACN were diluted with diluent (water:MeOH 95:5) and assayed by HPLC.
A linear standard curve was constructed using standards with concentration between 11 μg/mL to 1.5 mg/mL as free acid forcing the curve to origin. Solubilities are reported as mg/mL free acid 25HC3S. Detection limit (LOD) of the HPLC method was calculated as 0.0007 mg/mL.
This is another data set of the same source.

The conditions of data set [5]: by compressibility index and Hausner ratio. Here is the method: Although there are some variations in the method of determining the compressibility index and Hausner ratio, the basic procedure is to measure the unsettled apparent volume, VO, and the final tapped volume, Vf, of the powder after tapping the material until no further volume changes occur. The compressibility index and the Hausner ratio are calculated as follows: […]
Powder was carefully poured into a 5 mL glass graduated cylinder (to contain) until it was close to or at 5.0 mL. This initial volume was recorded as Vo. The graduated cylinder was tapped on a hard surface for 200 times and the volume was recorded. The cylinder was tapped 100 times more, and the final volume Vf was recorded.

Data set [6] is described as follows: Dynamic vapor sorption (DVS), sorption/desorption 5% to 95% RH. The format is physicochemical. The text has this:
Dynamic vapor sorption data was collected on a Surface Measurement System DVS Intrinsic instrument. The samples were not dried prior to analysis. […] Data were not corrected for the initial moisture content of the sample.

The conditions of data set [7]: after jet milling. Here is the method:
Crystalline 25HC3S was placed in a JAM-2-2002 mill under nitrogen and milled. The materials were then placed into product containers. Jet milling was conducted at a feed rate of 300 g/hour, with a venturi pressure of 50 psi and mill pressure of 120 psi of nitrogen. The target specification was set to having a Dv (90) of less than 10 microns.

Data set [8] in a line: Clinical study: safety and tolerability of oral doses of 25HC3S. The format is in vivo, healthy male and female subjects. The text has this:
The secondary objective for both Parts 1 and 2 of the study was: • To provide information on the safety and tolerability of oral doses of 25HC3S in healthy subjects
The evaluation of safety parameters comprised analysis of adverse events, laboratory variables (hematology, clinical chemistry and urinalysis), vital signs, electrocardiograms (ECGs) and physical examination findings.

Where two headings read alike, the source gives them in different places.

On to `C[C@H](CCCC(C)(C)O)[C@H]1CC[C@H]2[C@@H]3CC=C4C[C@@H](OS(=O)(=O)[O-])CC[C@]4(C)[C@H]3CC[C@]12C.C[N+](C)(C)CCO` [25HC3S choline, 25-hydroxy-3β-cholesten-5-en-3-sulfate (25HC3S) choline], for which, in data set [1] (2-8° C., 3 wk), the “% Impurities 25-HC (25-Hydroxy-Cholesterol)” value (“% Impurities 25-HC” below) was 0.2%; the “% Impurities SD (Sulfate Desmosterol)” value is on record as 0.4%; the “% Impurities Total” value is listed as 1.0%; the Appearance entry was “White, free flowing powder with clumping”. In addition, the Assay in data set [1] (2-8° C., 3 wk) is on record as 101.6 % w/w. Moreover, in data set [1] (2-8° C., 5 wk), the “% Impurities 25-HC” value is listed as 0.2%; the “% Impurities SD (Sulfate Desmosterol)” value is 0.3%; the “% Impurities Total” value was found to be 0.9%; the Appearance result is “White, free flowing powder with clumping”. The compound also had an Assay in data set [1] (2-8° C., 5 wk) of 108.1 % w/w. In addition, in data set [1] (80° C., 3 wk), the “% Impurities 25-HC” value was 0.4%, the “% Impurities SD (Sulfate Desmosterol)” value amounted to 0.4%, the “% Impurities Total” value turned out to be 1.2% and the “% Recovery of 2-8° C./3 wk VS 80° C../3 wk” value was 100.8%. In data set [1] (80° C., 3 wk), the Appearance result is on record as “White, free flowing powder with clumping” and the Assay was determined as 102.4 % w/w. Also, in data set [1] (80° C., 5 wk), the “% Impurities 25-HC” value is recorded as 0.2%, the “% Impurities SD (Sulfate Desmosterol)” value came to 0.8%, the “% Impurities Total” value was 2.2% and the “% Recovery of 2-8º C./5 wk VS 80° C./5 wk” value is listed as 97.3%. Moreover, in data set [1] (80° C., 5 wk), the Appearance entry is listed as “White, free flowing powder with clumping” and the Assay amounted to 105.2 % w/w. Also, the drug release in data set [2] is reported as ~ 10%. Also, the “Flow Property per USP<1174> Powder Flow” value in data set [3] is “Good (31-35)”. Moreover, in data set [4], the “Solubility in 0.9% Sodium Chloride” value is “low solubility”, the “Solubility in 5% Dextrose” value worked out at 0.093 mg/mL as Free Acid, the “Solubility in ACN” value is given as 0.5 mg/mL as Free Acid and the “Solubility in EtOH” value is 3.4 mg/mL as Free Acid. Moreover, in data set [4], the “Solubility in IPA” value is listed as 0.6 mg/mL as Free Acid, the “Solubility in MeOH” value was 17.5 mg/mL as Free Acid and the “Solubility in Water” value is recorded as 0.107 mg/mL as Free Acid. For the same compound, the “Scale of Flowability per USP<1174> (Flow Character)” value in data set [5] is given as “Very, very poor (>38)”. Also, the “weight loss on the return to 5% relative humidity” value in data set [6] (DVS desorption 95% to 5% RH) came to 0.5%.

`C[C@H](CCCC(C)(C)O)[C@H]1CC[C@H]2[C@@H]3CC=C4C[C@@H](OS(=O)(=O)[O-])CC[C@]4(C)[C@H]3CC[C@]12C.C[N+](C)(C)CCO` [Micronized 25HC3S choline]: the “composite Dv (90)” value in data set [7] amounted to 4 microns.

Consider `C[C@H](CCCC(C)(C)O)[C@H]1CCC2C3CC=C4C[C@@H](OS(=O)(=O)O)CC[C@]4(C)C3CC[C@@]21C` (stereo partly drawn) [Tablet 25HC3S, [(3S,10R,13R,17R)-17-[(1R)-5-hydroxy-1,5-dimethyl-hexyl]-10,13-dimethyl-2,3,4,7,8,9,11,12,14,15,16,17-dodecahydro-1H-cyclopenta[a]phenanthren-3-yl]sulfate], for which the “subjects reporting TEAEs, overall” value in data set [8] (16 subjects, all TEAEs mild, not related to IMP) is on record as 2 (12.5%). The “serious or severe TEAEs or deaths” value in data set [8] (all regimens) is given as “No serious, severe treatment-emergent adverse events (TEAEs) or deaths were reported”. For the same compound, the tolerability entry in data set [8] (choline salt IR formulations up to 50 mg fed and fasted, sodium salt PiB and choline salt PiB 12.5 mg fasted) is listed as “well tolerated”. Also, the “total number of TEAEs” value in data set [8] (overall) came out at 4.

On to `C[C@H](CCCC(C)(C)O)[C@H]1CC[C@H]2[C@@H]3CC=C4C[C@@H](OS(=O)(=O)[O-])CC[C@]4(C)[C@H]3CC[C@]12C.[Na+]` [crystalline 25HC3S sodium, Sodium [(3S,10R,13R,17R)-17-[(1R)-5-hydroxy-1,5-dimethyl-hexyl]-10,13-dimethyl-2,3,4,7,8,9,11,12,14,15,16,17-dodecahydro-1H-cyclopenta[a]phenanthren-3-yl]sulfate, reference compound], for which the “water uptake (DVS isotherm, in words)” value in data set [6] (until about 95% relative humidity, batch containing Form I and Form II) was “significant water uptake”.
